Source: ChEMBL document CHEMBL3885861, “Open TG-GATES”

Species on record: Rattus norvegicus
Assay: Open TG-GATES - Regimen: Single
Assay type: toxicity, organism-based, Sprague-Dawley
Set-up: regimen Single, gender Male, age 6 weeks
Settings: in vivo, po, 300 mg/kg, route gavage, dose level Middle; for APTT / Bas / Eos / Fbg / Hb / Ht / Lym / MCH / MCHC / MCV / Mono / Neu / PT / Plat / RBC / Ret / WBC: tissue Blood; for KIDNEY_L / KIDNEY_R / KIDNEY_TOTAL: tissue Kidney; for LIVER: tissue Liver; for A/G / ALP / ALT / AST / BUN / CRE / Ca / Cl / DBIL / GLC / IP / K / LDH / Na / PL / RALB / TBIL / TC / TG / TP / gamma-GTP: tissue Plasma

CC(C)(S)[C@@H](N)C(=O)O [PENICILLAMINE]
TERMINAL_BW (3 h): 203.8 g | APTT (3 h): 16.5 s | Bas (3 h): 0% | Eos (3 h): 0.8% | Fbg (3 h): 315.2 mg/dL | Hb (3 h): 13.2 g/dL | Ht (3 h): 40.7% | Lym (3 h): 75.4% | MCH (3 h): 20.9 pg | MCHC (3 h): 32.3% | MCV (3 h): 64.7 fL | Mono (3 h): 3.8% | Neu (3 h): 19.4% | PT (3 h): 15.1 s | Plat (3 h): 123.1 x10_4/uL | RBC (3 h): 629.8 x10_4/ul | Ret (3 h): 9% | WBC (3 h): 73.3 x10_2/uL | KIDNEY_L (3 h): 0.8 g | KIDNEY_R (3 h): 0.9 g | KIDNEY_TOTAL (3 h): 1.7 g | LIVER (3 h): 8.6 g | A/G (3 h): 0.9 | ALP (3 h): 1102.4 IU/L | ALT (3 h): 43.6 IU/L | AST (3 h): 73.4 IU/L | BUN (3 h): 8.4 mg/dL | CRE (3 h): 0.2 mg/dL | Ca (3 h): 10.9 mg/dL | Cl (3 h): 106.2 meq/L | DBIL (3 h): 0.01 mg/dL | GLC (3 h): 175 mg/dL | IP (3 h): 8.4 mg/dL | K (3 h): 4.3 meq/L | LDH (3 h): 57.4 IU/L | Na (3 h): 142.6 meq/L | PL (3 h): 139.2 mg/dL | RALB (3 h): 2.5 g/dL | TBIL (3 h): 0.034 mg/dL | TC (3 h): 73.8 mg/dL | TG (3 h): 87.8 mg/dL | TP (3 h): 5.3 g/dL | gamma-GTP (3 h): 1 IU/L | TERMINAL_BW (6 h): 200.3 g | APTT (6 h): 14.8 s | Bas (6 h): 0% | Eos (6 h): 0.8% | Fbg (6 h): 313.6 mg/dL | Hb (6 h): 13.4 g/dL | Ht (6 h): 41.5% | Lym (6 h): 74.6% | MCH (6 h): 20.4 pg | MCHC (6 h): 32.3% | MCV (6 h): 63.4 fL | Mono (6 h): 3% | Neu (6 h): 20.6% | PT (6 h): 14.6 s | Plat (6 h): 121.5 x10_4/uL | RBC (6 h): 655.4 x10_4/ul | Ret (6 h): 8.7% | WBC (6 h): 87.9 x10_2/uL | KIDNEY_L (6 h): 0.9 g | KIDNEY_R (6 h): 0.9 g | KIDNEY_TOTAL (6 h): 1.8 g | LIVER (6 h): 8.2 g | A/G (6 h): 0.9 | ALP (6 h): 1066.8 IU/L | ALT (6 h): 36.6 IU/L | AST (6 h): 72 IU/L | BUN (6 h): 8.2 mg/dL | CRE (6 h): 0.2 mg/dL | Ca (6 h): 10.7 mg/dL | Cl (6 h): 106.2 meq/L | DBIL (6 h): 0.012 mg/dL | GLC (6 h): 182.8 mg/dL | IP (6 h): 9.5 mg/dL | K (6 h): 4.4 meq/L | LDH (6 h): 60.8 IU/L | Na (6 h): 142.8 meq/L | PL (6 h): 139.6 mg/dL | RALB (6 h): 2.5 g/dL | TBIL (6 h): 0.038 mg/dL | TC (6 h): 79.2 mg/dL | TG (6 h): 47.4 mg/dL | TP (6 h): 5.2 g/dL | gamma-GTP (6 h): 1 IU/L | TERMINAL_BW (9 h): 198.7 g | APTT (9 h): 16.2 s | Bas (9 h): 0% | Eos (9 h): 0.8% | Fbg (9 h): 304.8 mg/dL | Hb (9 h): 13.2 g/dL | Ht (9 h): 40.9% | Lym (9 h): 76.8% | MCH (9 h): 20.8 pg | MCHC (9 h): 32.2% | MCV (9 h): 64.4 fL | Mono (9 h): 3% | Neu (9 h): 18.6% | PT (9 h): 15.2 s | Plat (9 h): 120.8 x10_4/uL | RBC (9 h): 634.2 x10_4/ul | Ret (9 h): 8.9% | WBC (9 h): 73.6 x10_2/uL | KIDNEY_L (9 h): 0.9 g | KIDNEY_R (9 h): 0.9 g | KIDNEY_TOTAL (9 h): 1.7 g | LIVER (9 h): 7.7 g | A/G (9 h): 0.9 | ALP (9 h): 1040.2 IU/L | ALT (9 h): 32.8 IU/L | AST (9 h): 67 IU/L | BUN (9 h): 8 mg/dL | CRE (9 h): 0.2 mg/dL | Ca (9 h): 10.6 mg/dL | Cl (9 h): 107.2 meq/L | DBIL (9 h): 0.01 mg/dL | GLC (9 h): 175.4 mg/dL | IP (9 h): 9.9 mg/dL | K (9 h): 4 meq/L | LDH (9 h): 58 IU/L | Na (9 h): 142.8 meq/L | PL (9 h): 128.8 mg/dL | RALB (9 h): 2.5 g/dL | TBIL (9 h): 0.042 mg/dL | TC (9 h): 73.6 mg/dL | TG (9 h): 39.4 mg/dL | TP (9 h): 5.2 g/dL | gamma-GTP (9 h): 1 IU/L | TERMINAL_BW (24 h): 216.3 g | APTT (24 h): 15.1 s | Bas (24 h): 0.2% | Eos (24 h): 1% | Fbg (24 h): 290.8 mg/dL | Hb (24 h): 13.5 g/dL | Ht (24 h): 41.5% | Lym (24 h): 82.2% | MCH (24 h): 21.1 pg | MCHC (24 h): 32.5% | MCV (24 h): 64.7 fL | Mono (24 h): 3% | Neu (24 h): 12.6% | PT (24 h): 14 s | Plat (24 h): 123.4 x10_4/uL | RBC (24 h): 640.6 x10_4/ul | Ret (24 h): 8.3% | WBC (24 h): 101.5 x10_2/uL | KIDNEY_L (24 h): 0.9 g | KIDNEY_R (24 h): 0.9 g | KIDNEY_TOTAL (24 h): 1.8 g | LIVER (24 h): 10.1 g | A/G (24 h): 0.9 | ALP (24 h): 1515 IU/L | ALT (24 h): 39.2 IU/L | AST (24 h): 65.8 IU/L | BUN (24 h): 13.4 mg/dL | CRE (24 h): 0.2 mg/dL | Ca (24 h): 11.1 mg/dL | Cl (24 h): 105.6 meq/L | DBIL (24 h): 0.012 mg/dL | GLC (24 h): 172.4 mg/dL | IP (24 h): 8.2 mg/dL | K (24 h): 4.1 meq/L | LDH (24 h): 79.4 IU/L | Na (24 h): 144.2 meq/L | PL (24 h): 164.8 mg/dL | RALB (24 h): 2.6 g/dL | TBIL (24 h): 0.028 mg/dL | TC (24 h): 86.6 mg/dL | TG (24 h): 126 mg/dL | TP (24 h): 5.5 g/dL | gamma-GTP (24 h): 1.2 IU/L
